The assay concerns accumulation of c-AMP by PGE2. The experiment in a line: Antagonism of PGE2-enhanced c-AMP levels in mouse thymus cells (radioimmunoassay). The class given is cell-based. An excerpt:
A suitable test for this purpose is based on the enhancement of cyclic AMP (adenosine-3',5'-monophosphate) levels in tissues due to adenyl cyclase stimulated by the action of prostaglandins of the PGE2 type. An exemplification of such a test used to determine the antagonist activity of the compounds of the present invention is as follows. A BC 57/BL (Jackson Laboratories) mouse is sacrificed and the thymus gland removed and teased apart to provide thymus cells which are suspended in a culture medium. The degradation of c-AMP is blocked by addition of 4-(3-butoxy-4-methoxybenzyl)-2-imidazolidinone (Hoffman-LaRoche, Ro 20-1724), a c-AMP phosphodiesterase inhibitor. A measured dose of the compound under test is added to the suspension of cells and the suspension is incubated at 37° C. for ten minutes. A measured dose of PGE2 is added to the suspension, which is then incubated for a further period of 30 minutes. The cells are then centrifuged, washed and the c-AMP extracted with ethanol. The ethanol extract is evaporated to dryness, redissolved in buffer solution and the c-AMP level determined by a radioimmunoassay, see Zimmerman et al, Anal. Biochem. 71, 79 (1976) and Steiner et al, J. Biol. Chem. 247, 1106 (1972). Comparison of the enhancement of c-AMP levels produced by PGE2 alone and by PGE2 together with the compound under test allow determination of the antagonist activity.
An example of the results from this test are those obtained with 2-(3-hydroxy-trans-1-octenyl)-3-(5-carboethoxypentyloxy)-4-pyrone. The initial c-AMP level of the cell culture was measured as 1.9 ± 0.7 picomole c-AMP/10^7 cells. Incubation with 10^-5 M PGE2 alone enhanced the level to 88 ± 7 picomole c-AMP/10^7 cells. By comparison, when the cells were incubated for ten minutes with 7 × 10^-5 M of the test compound the c-AMP level was measured at 2 ± 0.1 picomole c-AMP/10^7 cells. Following incubation for 30 minutes with 10^-5 M PGE2 the level was measured as 51 ± 5 picomole c-AMP/10^7 cells. Similarly, in a second experiment, after ten minutes incubation with 7 × 10^-6 M of the test compound, the c-AMP level was measured at 1.4 ± 0.2 picomoles c-AMP/10^7 cells; after 30 minutes incubation with 10^-5 M PGE2 the c-AMP level was measured as 69 ± 8 picomoles c-AMP/10^7 cells. […] Both of these compounds are well known in the art as prostaglandin antagonists.

As for `CCCCCCC#C[C@H]1CCC[C@@H]1OCCCCCC(=O)O` [7-oxa-13-prostynoic acid, reference compound], the inhibition at 100 µM (Mus musculus, concentration of 10^-4 M, same test conditions) is 45%. For `CCCCCC(O)/C=C/c1occc(=O)c1OCCCCCC(=O)OCC` (racemic) [2-[(3RS)-3-hydroxy-trans-1-octenyl]-3-(5-carboethoxypentyloxy)-4-pyrone], the c-AMP level is reported as 51 ± 5 picomole c-AMP/10^7 cells (7 × 10^-5 M test compound, then 30 minutes with 10^-5 M PGE2 (PGE2 alone 88 ± 7)); 69 ± 8 picomoles c-AMP/10^7 cells (second experiment, 7 × 10^-6 M test compound, then 30 minutes with 10^-5 M PGE2); 1.4 ± 0.2 picomoles c-AMP/10^7 cells (second experiment, ten minutes with 7 × 10^-6 M test compound, before PGE2); 2 ± 0.1 picomole c-AMP/10^7 cells (thymus cells incubated ten minutes with 7 × 10^-5 M test compound, before PGE2).

Turning to `CC(=O)NNC(=O)N1Cc2ccccc2Oc2ccc(Cl)cc21` [SC-19220, reference compound], the inhibition at 50 µM (Mus musculus, 5 × 10^-5 M, same test conditions) stood at 30%. On to `CCCCC[C@H](O)/C=C/[C@H]1[C@H](O)CC(=O)[C@@H]1C/C=C\CCCC(=O)O` [PGE2, reference compound], for which, under “incubation with 10^-5 M PGE2 alone (initial level 1.9 ± 0.7)”, the c-AMP level is 88 ± 7 picomole c-AMP/10^7 cells.

The values are drawn from patent US4132847A, “4-Pyrone prostaglandin antagonists” (Pfizer Inc., priority 1977, dated 1979).
